The test system of assay [1] is ENR+CD organoids (ISC to Paneth cell differentiation). The assay is described as follows: Primary screen: CCh-stimulated lysozyme secretion LYZ.S, 2.5-D 384-well ENR+CD organoid differentiation. The class given is cell-based, mouse. The conditions noted are these: primary screen. The source says: (§1) High-throughput screening.
The test system is the same in assay [2]. Description: Primary screen: basal (non-stimulated) lysozyme secretion LYZ.NS, 2.5-D 384-well ENR+CD organoid differentiation. The format is cell-based, mouse.
Text: as §1

The test system of assay [3] is ENR+CD organoids. The assay is described as follows: Primary screen: ATP (CellTiter-Glo 3D, CTG) cell number/viability, 2.5-D 384-well ENR+CD organoids.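 Note: compounds given at plating and again on day 3 over a 6-day differentiation from ENR+CV stem-cell-enriched precursors, ATP measured on day 6, plate median as control.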
Where [4] appears, read: primary screen, standard z score, dose 0.08 uM.
[5] abbreviates: primary screen, standard z score, dose 0.40 uM.
The mark [6] stands for this setting: primary screen, standard z score, dose 2.00 uM.
[7] abbreviates: primary screen, standard z score, dose 10.00 uM.
Where [8] appears, read: dose 0.08 uM, FC vs plate median.
[9] abbreviates: dose 0.40 uM, FC vs plate median.
Setting [10] is: dose 2.00 uM, FC vs plate median.
The mark [11] stands for this setting: dose 10.00 uM, FC vs plate median.
[12] abbreviates: primary screen, dose 0.08 uM, standard z score.
The mark [13] stands for this setting: primary screen, dose 0.40 uM, standard z score.
Setting [14] is: primary screen, dose 2.00 uM, standard z score.
[15] abbreviates: primary screen, dose 10.00 uM, standard z score.
Setting [16] is: primary screen; dose 0.08 uM; FC vs plate median.
Setting [17] is: primary screen; dose 0.40 uM; FC vs plate median.
Setting [18] is: primary screen; dose 2.00 uM; FC vs plate median.
The mark [19] stands for this setting: primary screen; dose 10.00 uM; FC vs plate median.

Turning to `CC(C)c1cc(-c2n[nH]c(=O)n2-c2ccc3c(ccn3C)c2)c(O)cc1O` [Ganetespib (STA-9090)], the Dose.FC.LYZ.S is −0.260 log2 fold change in assay [1] (dose 0.08 uM), −0.250 log2 fold change in assay [1] (dose 0.40 uM), −0.260 log2 fold change in assay [1] (dose 2.00 uM) and −0.267 log2 fold change in assay [1] (dose 10.00 uM). In addition, the Dose.FC.LYZ.NS in assay [2] (primary screen, dose 0.08 uM) was −0.141 log2 fold change; in assay [2] (primary screen, dose 0.40 uM) it was −0.155 log2 fold change; in assay [2] (primary screen, dose 2.00 uM), −0.150 log2 fold change; in assay [2] (primary screen, dose 10.00 uM), −0.136 log2 fold change. For the same compound, the Z.LYZ.NS is given as −1.226 in assay [2] (setting [4]), −1.345 in assay [2] (setting [5]), −1.309 in assay [2] (setting [6]) and −1.181 in assay [2] (setting [7]). Besides, the Dose.FC.CTG is −1.450 log2 fold change in assay [3] (primary screen, dose 0.08 uM); −2.105 log2 fold change in assay [3] (primary screen, dose 0.40 uM); −1.721 log2 fold change in assay [3] (primary screen, dose 2.00 uM); −1.620 log2 fold change in assay [3] (primary screen, dose 10.00 uM). The Z.CTG is given as −3.465 in assay [3] (setting [4]), −5.027 in assay [3] (setting [5]), −4.110 in assay [3] (setting [6]) and −3.871 in assay [3] (setting [7]).
With `C[C@]1(O)C[C@@H](c2nc(-c3ccc4ccc(-c5ccccc5)nc4c3)c3c(N)nccn32)C1` [OSI-906 (Linsitinib)], the Dose.FC.LYZ.S in assay [1] (setting [8]) is −0.026 log2 fold change; in assay [1] (setting [9]), −0.119 log2 fold change; in assay [1] (setting [10]) it was −0.288 log2 fold change; in assay [1] (setting [11]), −0.328 log2 fold change. For the same compound, the Z.LYZ.NS in assay [2] (setting [12]) is 0.110; in assay [2] (setting [13]) it was −0.806; in assay [2] (setting [14]) it was −1.882; in assay [2] (setting [15]), −1.996. Also, the Dose.FC.LYZ.NS in assay [2] (setting [16]) is 0.013 log2 fold change; in assay [2] (setting [17]) it was −0.093 log2 fold change; in assay [2] (setting [18]), −0.216 log2 fold change; in assay [2] (setting [19]), −0.229 log2 fold change. Further, the Z.CTG in assay [3] (setting [12]) is reported as −0.775; in assay [3] (setting [13]), −0.377; in assay [3] (setting [14]), −0.661; in assay [3] (setting [15]), −0.934. The Dose.FC.CTG is given as −0.324 log2 fold change in assay [3] (setting [16]), −0.158 log2 fold change in assay [3] (setting [17]), −0.277 log2 fold change in assay [3] (setting [18]) and −0.391 log2 fold change in assay [3] (setting [19]).
For the compound `Cc1cccc(CC(=O)N2CCc3c2ccc(-c2cn(C)c4ncnc(N)c24)c3F)n1` [GSK2656157], the “Dose.FC.LYZ.S (log2 fold change)” value in assay [1] (dose 0.08 uM) is reported as −0.008; in assay [1] (dose 0.40 uM) it was 0.060; in assay [1] (dose 2.00 uM), −0.020; in assay [1] (dose 10.00 uM) it was 0.090. Further, the “Dose.FC.LYZ.NS (log2 fold change)” value in assay [2] (primary screen, dose 0.08 uM) is given as −0.031; in assay [2] (primary screen, dose 0.40 uM), −0.045; in assay [2] (primary screen, dose 2.00 uM) it was −0.033; in assay [2] (primary screen, dose 10.00 uM), −0.012. Besides, the “Z.LYZ.NS (standard z score)” value in assay [2] (primary screen, dose 0.08 uM) is given as −0.267; in assay [2] (primary screen, dose 0.40 uM) it was −0.396; in assay [2] (primary screen, dose 2.00 uM) it was −0.291; in assay [2] (primary screen, dose 10.00 uM), −0.102. For the same compound, the “Dose.FC.CTG (log2 fold change)” value is on record as 0.068 in assay [3] (primary screen, dose 0.08 uM); 0.115 in assay [3] (primary screen, dose 0.40 uM); 0.083 in assay [3] (primary screen, dose 2.00 uM); 0.119 in assay [3] (primary screen, dose 10.00 uM). Besides, the “Z.CTG (standard z score)” value was found to be 0.162 in assay [3] (primary screen, dose 0.08 uM); 0.274 in assay [3] (primary screen, dose 0.40 uM); 0.197 in assay [3] (primary screen, dose 2.00 uM); 0.284 in assay [3] (primary screen, dose 10.00 uM).
`COc1ccccc1N1CCN(CC(O)COc2cccc3ccccc23)CC1` (stereo not shown) [Naftopidil]: the Dose.FC.LYZ.S was 0.015 log2 fold change in assay [1] (setting [8]), −0.128 log2 fold change in assay [1] (setting [9]), −0.097 log2 fold change in assay [1] (setting [10]) and −0.079 log2 fold change in assay [1] (setting [11]). In addition, the Z.LYZ.NS is recorded as −0.325 in assay [2] (setting [12]), −0.713 in assay [2] (setting [13]), −0.171 in assay [2] (setting [14]) and −0.638 in assay [2] (setting [15]). For the same compound, the Dose.FC.LYZ.NS was −0.037 log2 fold change in assay [2] (setting [16]), −0.082 log2 fold change in assay [2] (setting [17]), −0.020 log2 fold change in assay [2] (setting [18]) and −0.073 log2 fold change in assay [2] (setting [19]). The Dose.FC.CTG is −0.039 log2 fold change in assay [3] (setting [16]), −0.161 log2 fold change in assay [3] (setting [17]), −0.179 log2 fold change in assay [3] (setting [18]) and −0.132 log2 fold change in assay [3] (setting [19]).

(Values after patent US20220323406A1, “METHODS AND COMPOSITIONS FOR DIFFERENTIATING STEM CELLS” (Massachusetts Institute of Technology, priority 2019, published 2022).)
